Consider 1 molecule from PMC5841300, “Magnolol restores the activity of meropenem against NDM-1-producing Escherichia coli by inhibiting the activity of metallo-beta-lactamase” (Cell Death Discovery, 2018).

The structures appear in SMILES notation.

As usually defined, the Kd is the equilibrium constant for the complex coming apart. Higher therefore signals lower affinity. In general, IC50 refers to the concentration needed to halve the response being measured.

Assay [1] concerns the target T1, New Delhi metallo-β-lactamase-1 (NDM-1) (Escherichia coli, UniProt E5KIY2, G219A).
T1 construct: gene blaNDM-1; NDM-1 without the signal peptide, amino-terminal histidine tag
The assay is described as follows: fluorescence quenching (binding constant KA).

Assay [2] concerns the target T2, New Delhi metallo-β-lactamase-1 (NDM-1) (Escherichia coli, UniProt E5KIY2, K211A).
T2 construct: gene blaNDM-1; NDM-1 without the signal peptide, amino-terminal histidine tag
As to the kind of experiment: fluorescence quenching (binding constant KA).

Assay [3] addresses T3, New Delhi metallo-β-lactamase-1 (NDM-1) (Escherichia coli, UniProt E5KIY2).
T3 construct: gene blaNDM-1; NDM-1 without the signal peptide, amino-terminal histidine tag
The assay is described as follows: purified recombinant enzyme, nitrocefin hydrolysis assay; also fluorescence quenching, KA […] ([…] L/mol). The assay is classed as biochemical.

Regarding `C=CCc1ccc(O)c(-c2cc(CC=C)ccc2O)c1` [magnolol], the Kd in assay [1] is 18.2 µM; in assay [2] it was 20.8 µM. Further, the IC50 in assay [3] is 24.3 µM.
